Measurements taken from patent US20230085307A1, “PYRIDAZINONE COMPOUND AND HERBICIDE” (NISSAN CHEMICAL CORPORATION, priority 2019, published 2023).

Columns and labels:
barnyard grass [1] = test: Test Example 3: herbicidal effect by foliage application, Wagner pot (Table 18, symbol H); type: in vivo, barnyard grass (Echinochloa crus-galli)
Outline: (§1)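 Plants were sown in alluvial soil held under 0.1–0.5 cm standing water and grown 14 days in a greenhouse at 25–30 °C. An emulsifiable formulation, water-diluted to the set dose, was then sprayed onto the foliage, and effects were scored three weeks later using previously defined criteria.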

redroot pigweed [2] = test: Test Example 5: herbicidal effect by foliage application, plastic box (Table 20, symbol N); type: in vivo, redroot pigweed (Amaranthus retroflexus); details: foliage application, 320 g/ha
Outline: (§2)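 Foliar spray test: emulsion formulation diluted in water to a set application rate, sprayed onto 14-day-old plants raised in diluvial soil at 25° C to 30° C under glass. Both herbicidal effect and crop effect rated visually three weeks later.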

Italian ryegrass [3] = test: Test Example 5: herbicidal effect by foliage application, plastic box (Table 20, symbol K); type: in vivo, Italian ryegrass (Lolium multiflorum); details: foliage application, 320 g/ha
Outline: as §2

barnyard grass [4] = test: Test Example 5: herbicidal effect by foliage application, plastic box (Table 20, symbol H); type: in vivo, barnyard grass (Echinochloa crus-galli); details: foliage application, 320 g/ha
Outline: as §2

chickweed [5] = test: Test Example 4: herbicidal effect by soil treatment (Table 19, symbol P); type: in vivo, common chickweed (Stellaria media); details: amount of applied herbicide 320 g/ha
Outline: (§3)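 Herbicidal effect was rated 3 weeks after treatment, using the scoring criteria of an earlier test. The compound, formulated as an emulsion and diluted in water to a set herbicide amount, had been sprayed uniformly on soil over freshly sown seeds. Growth took place in a greenhouse at 25° C. to 30° C.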

windgrass [6] = test: Test Example 5: herbicidal effect by foliage application, plastic box (Table 20, symbol L); type: in vivo, windgrass (Apera spica-venti); details: foliage application, 320 g/ha
Outline: as §2

blackgrass [7] = test: Test Example 4: herbicidal effect by soil treatment (Table 19, symbol J); type: in vivo, blackgrass (Alopecurus myosuroides); details: amount of applied herbicide 320 g/ha
Outline: as §3

green foxtail [8] = test: Test Example 4: herbicidal effect by soil treatment (Table 19, symbol G); type: in vivo, green foxtail (Setaria viridis); details: amount of applied herbicide 320 g/ha
Outline: as §3

barnyard grass [9] = test: Test Example 4: herbicidal effect by soil treatment (Table 19, symbol H); type: in vivo, barnyard grass (Echinochloa crus-galli); details: amount of applied herbicide 320 g/ha
Outline: as §3

wild oat [10] = test: Test Example 4: herbicidal effect by soil treatment (Table 19, symbol I); type: in vivo, wild oat (Avena fatua); details: amount of applied herbicide 320 g/ha
Outline: as §3

rice flat sedge = test: Test Example 3: herbicidal effect by foliage application, Wagner pot (Table 18, symbol E); type: in vivo, rice flat sedge (Cyperus iria)
Outline: as §1

Italian ryegrass [11] = test: Test Example 4: herbicidal effect by soil treatment (Table 19, symbol K); type: in vivo, Italian ryegrass (Lolium multiflorum); details: amount of applied herbicide 320 g/ha
Outline: as §3

southern crabgrass [12] = test: Test Example 4: herbicidal effect by soil treatment (Table 19, symbol F); type: in vivo, southern crabgrass (Digitaria ciliaris); details: amount of applied herbicide 320 g/ha
Outline: as §3

lambsquarters [13] = test: Test Example 4: herbicidal effect by soil treatment (Table 19, symbol O); type: in vivo, lambsquarters (Chenopodium album); details: amount of applied herbicide 320 g/ha
Outline: as §3

green foxtail [14] = test: Test Example 5: herbicidal effect by foliage application, plastic box (Table 20, symbol G); type: in vivo, green foxtail (Setaria viridis); details: foliage application, 320 g/ha
Outline: as §2

wild oat [15] = test: Test Example 5: herbicidal effect by foliage application, plastic box (Table 20, symbol I); type: in vivo, wild oat (Avena fatua); details: foliage application, 320 g/ha
Outline: as §2

false cleavers [16] = test: Test Example 5: herbicidal effect by foliage application, plastic box (Table 20, symbol Q); type: in vivo, false cleavers (Galium spurium); details: foliage application, 320 g/ha
Outline: as §2

southern crabgrass [17] = test: Test Example 5: herbicidal effect by foliage application, plastic box (Table 20, symbol F); type: in vivo, southern crabgrass (Digitaria ciliaris); details: foliage application, 320 g/ha
Outline: as §2

redroot pigweed [18] = test: Test Example 4: herbicidal effect by soil treatment (Table 19, symbol N); type: in vivo, redroot pigweed (Amaranthus retroflexus); details: amount of applied herbicide 320 g/ha
Outline: as §3

windgrass [19] = test: Test Example 4: herbicidal effect by soil treatment (Table 19, symbol L); type: in vivo, windgrass (Apera spica-venti); details: amount of applied herbicide 320 g/ha
Outline: as §3

chickweed [20] = test: Test Example 5: herbicidal effect by foliage application, plastic box (Table 20, symbol P); type: in vivo, common chickweed (Stellaria media); details: foliage application, 320 g/ha
Outline: as §2

persian speedwell [21] = test: Test Example 4: herbicidal effect by soil treatment (Table 19, symbol R); type: in vivo, Persian speedwell (Veronica persica); details: amount of applied herbicide 320 g/ha
Outline: as §3

false cleavers [22] = test: Test Example 4: herbicidal effect by soil treatment (Table 19, symbol Q); type: in vivo, false cleavers (Galium spurium); details: amount of applied herbicide 320 g/ha
Outline: as §3

persian speedwell [23] = test: Test Example 5: herbicidal effect by foliage application, plastic box (Table 20, symbol R); type: in vivo, Persian speedwell (Veronica persica); details: foliage application, 320 g/ha
Outline: as §2

Chinese sprangletop = test: Test Example 3: herbicidal effect by foliage application, Wagner pot (Table 18, symbol D); type: in vivo, chinese sprangletop (Leptochloa chinensis)
Outline: as §1

velvetleaf [24] = test: Test Example 4: herbicidal effect by soil treatment (Table 19, symbol M); type: in vivo, velvetleaf (Abutilon theophrasti); details: amount of applied herbicide 320 g/ha
Outline: as §3

lambsquarters [25] = test: Test Example 5: herbicidal effect by foliage application, plastic box (Table 20, symbol O); type: in vivo, lambsquarters (Chenopodium album); details: foliage application, 320 g/ha
Outline: as §2

velvetleaf [26] = test: Test Example 5: herbicidal effect by foliage application, plastic box (Table 20, symbol M); type: in vivo, velvetleaf (Abutilon theophrasti); details: foliage application, 320 g/ha
Outline: as §2

blackgrass [27] = test: Test Example 5: herbicidal effect by foliage application, plastic box (Table 20, symbol J); type: in vivo, blackgrass (Alopecurus myosuroides); details: foliage application, 320 g/ha
Outline: as §2

[28] = amount of applied herbicide 320 g/ha
[29] = evaluated three weeks after application

## CCCC(=O)Oc1c(C)nn(C)c(=O)c1-c1c(-c2cc(F)ccc2OC)sc2ccc(C)cc12 [2-151]
Barnyard grass [1]; [28]
  herbicidal effect on H: barnyard grass: 3 (Herbicidal rate of 40% or more and less than 70%)
Redroot pigweed [2]; [29]
  herbicidal effect on N: redroot pigweed (criteria 0-5): 3 (Herbicidal rate of 40% or more and less than 70%)
Italian ryegrass [3]; [29]
  herbicidal effect on K: Italian ryegrass (criteria 0-5): 0 (Herbicidal rate of 5% or less (almost no effect))
Barnyard grass [4]; [29]
  herbicidal effect on H: barnyard grass (criteria 0-5): 0 (Herbicidal rate of 5% or less (almost no effect))
Chickweed [5]
  P: chickweed, herbicidal effect rating: 1 (Herbicidal rate of 5% or more and less than 20%)
Windgrass [6]; [29]
  herbicidal effect on L: windgrass (criteria 0-5): 0 (Herbicidal rate of 5% or less (almost no effect))
Blackgrass [7]
  J: blackgrass, herbicidal effect rating: 0 (Herbicidal rate of 5% or less (almost no effect))
Green foxtail [8]
  G: green foxtail, herbicidal effect rating: 0 (Herbicidal rate of 5% or less (almost no effect))
Barnyard grass [9]
  H: barnyard grass, herbicidal effect rating: 0 (Herbicidal rate of 5% or less (almost no effect))
Wild oat [10]
  I: wild oat, herbicidal effect rating: 0 (Herbicidal rate of 5% or less (almost no effect))
Rice flat sedge; [28]
  herbicidal effect on E: rice flat sedge: 3 (Herbicidal rate of 40% or more and less than 70%)
Italian ryegrass [11]
  K: Italian ryegrass, herbicidal effect rating: 0 (Herbicidal rate of 5% or less (almost no effect))
Southern crabgrass [12]
  F: southern crabgrass, herbicidal effect rating: 0 (Herbicidal rate of 5% or less (almost no effect))
Lambsquarters [13]
  O: lambsquarters, herbicidal effect rating: 4 (Herbicidal rate of 70% or more and less than 90%)
Green foxtail [14]; [29]
  herbicidal effect on G: green foxtail (criteria 0-5): 0 (Herbicidal rate of 5% or less (almost no effect))
Wild oat [15]; [29]
  herbicidal effect on I: wild oat (criteria 0-5): 0 (Herbicidal rate of 5% or less (almost no effect))
False cleavers [16]; [29]
  herbicidal effect on Q: false cleavers (criteria 0-5): 2 (Herbicidal rate of 20% or more and less than 40%)
Southern crabgrass [17]; [29]
  herbicidal effect on F: southern crabgrass (criteria 0-5): 0 (Herbicidal rate of 5% or less (almost no effect))
Redroot pigweed [18]
  N: redroot pigweed, herbicidal effect rating: 4 (Herbicidal rate of 70% or more and less than 90%)
Windgrass [19]
  L: windgrass, herbicidal effect rating: 0 (Herbicidal rate of 5% or less (almost no effect))
Chickweed [20]; [29]
  herbicidal effect on P: chickweed (criteria 0-5): 4 (Herbicidal rate of 70% or more and less than 90%)
Persian speedwell [21]
  R: persian speedwell, herbicidal effect rating: 3 (Herbicidal rate of 40% or more and less than 70%)
False cleavers [22]
  Q: false cleavers, herbicidal effect rating: 0 (Herbicidal rate of 5% or less (almost no effect))
Persian speedwell [23]; [29]
  herbicidal effect on R: persian speedwell (criteria 0-5): 4 (Herbicidal rate of 70% or more and less than 90%)
Chinese sprangletop; [28]
  herbicidal effect on D: Chinese sprangletop: 0 (Herbicidal rate of 5% or less (almost no effect))
Velvetleaf [24]
  M: velvetleaf, herbicidal effect rating: 0 (Herbicidal rate of 5% or less (almost no effect))
Lambsquarters [25]; [29]
  herbicidal effect on O: lambsquarters (criteria 0-5): 2 (Herbicidal rate of 20% or more and less than 40%)
Velvetleaf [26]; [29]
  herbicidal effect on M: velvetleaf (criteria 0-5): 1 (Herbicidal rate of 5% or more and less than 20%)
Blackgrass [27]; [29]
  herbicidal effect on J: blackgrass (criteria 0-5): 0 (Herbicidal rate of 5% or less (almost no effect))

## CCc1ccccc1-c1sc2ccccc2c1-c1c(O)c(C)nn(C)c1=O [1-003]
Barnyard grass [1]; 320 g/ha
  herbicidal effect on H (barnyard grass), rating 0-5: 1 (Herbicidal rate of 5% or more and less than 20%)
Redroot pigweed [2]; three weeks after application
  herbicidal effect grade, N: redroot pigweed: 3 (Herbicidal rate of 40% or more and less than 70%)
Italian ryegrass [3]; three weeks after application
  herbicidal effect grade, K: Italian ryegrass: 3 (Herbicidal rate of 40% or more and less than 70%)
Barnyard grass [4]; three weeks after application
  herbicidal effect grade, H: barnyard grass: 3 (Herbicidal rate of 40% or more and less than 70%)
Chickweed [5]
  herbicidal effect rating, P: chickweed: 4 (Herbicidal rate of 70% or more and less than 90%)
Windgrass [6]; three weeks after application
  herbicidal effect grade, L: windgrass: 5 (Herbicidal rate of 90% or more (almost completely withered))
Blackgrass [7]
  herbicidal effect rating, J: blackgrass: 0 (Herbicidal rate of 5% or less (almost no effect))
Green foxtail [8]
  herbicidal effect rating, G: green foxtail: 4 (Herbicidal rate of 70% or more and less than 90%)
Barnyard grass [9]
  herbicidal effect rating, H: barnyard grass: 0 (Herbicidal rate of 5% or less (almost no effect))
Wild oat [10]
  herbicidal effect rating, I: wild oat: 0 (Herbicidal rate of 5% or less (almost no effect))
Rice flat sedge; 320 g/ha
  herbicidal effect on E (rice flat sedge), rating 0-5: 3 (Herbicidal rate of 40% or more and less than 70%)
Italian ryegrass [11]
  herbicidal effect rating, K: Italian ryegrass: 0 (Herbicidal rate of 5% or less (almost no effect))
Southern crabgrass [12]
  herbicidal effect rating, F: southern crabgrass: 3 (Herbicidal rate of 40% or more and less than 70%)
Lambsquarters [13]
  herbicidal effect rating, O: lambsquarters: 3 (Herbicidal rate of 40% or more and less than 70%)
Green foxtail [14]; three weeks after application
  herbicidal effect grade, G: green foxtail: 5 (Herbicidal rate of 90% or more (almost completely withered))
Wild oat [15]; three weeks after application
  herbicidal effect grade, I: wild oat: 3 (Herbicidal rate of 40% or more and less than 70%)
False cleavers [16]; three weeks after application
  herbicidal effect grade, Q: false cleavers: 5 (Herbicidal rate of 90% or more (almost completely withered))
Southern crabgrass [17]; three weeks after application
  herbicidal effect grade, F: southern crabgrass: 4 (Herbicidal rate of 70% or more and less than 90%)
Redroot pigweed [18]
  herbicidal effect rating, N: redroot pigweed: 2 (Herbicidal rate of 20% or more and less than 40%)
Windgrass [19]
  herbicidal effect rating, L: windgrass: 0 (Herbicidal rate of 5% or less (almost no effect))
Chickweed [20]; three weeks after application
  herbicidal effect grade, P: chickweed: 5 (Herbicidal rate of 90% or more (almost completely withered))
Persian speedwell [21]
  herbicidal effect rating, R: persian speedwell: 2 (Herbicidal rate of 20% or more and less than 40%)
False cleavers [22]
  herbicidal effect rating, Q: false cleavers: 3 (Herbicidal rate of 40% or more and less than 70%)
Persian speedwell [23]; three weeks after application
  herbicidal effect grade, R: persian speedwell: 5 (Herbicidal rate of 90% or more (almost completely withered))
Chinese sprangletop; 320 g/ha
  herbicidal effect on D (Chinese sprangletop), rating 0-5: 3 (Herbicidal rate of 40% or more and less than 70%)
Velvetleaf [24]
  herbicidal effect rating, M: velvetleaf: 0 (Herbicidal rate of 5% or less (almost no effect))
Lambsquarters [25]; three weeks after application
  herbicidal effect grade, O: lambsquarters: 0 (Herbicidal rate of 5% or less (almost no effect))
Velvetleaf [26]; three weeks after application
  herbicidal effect grade, M: velvetleaf: 4 (Herbicidal rate of 70% or more and less than 90%)
Blackgrass [27]; three weeks after application
  herbicidal effect grade, J: blackgrass: 3 (Herbicidal rate of 40% or more and less than 70%)
